Results on two molecules are retold here after patent US20140045809A1, “CORROLES FOR NEUROPROTECTION AND NEURORESCUE” (priority 2008, published 2014).

For series [1], the system named is INS-1E cells. The experiment in a line: Protection of INS-1E cells against SIN-1 toxicity (MTT). The series is classed as cell-based, rat. The settings on record: 10 μM, 30 min before SIN-1 (500 or 600 μM), 24 h. On the procedure:
(§1) INS-1E cells or RIN-m cells were cultured in RPMI with low serum content (2% FCS), placed in microtiter plates (96 wells) at a density of 2.5×10^4 cells/well and allowed to attach for 24 h before treatment. Corroles 1C-Fe and 5C-Fe (10 μM) were added 30 min prior to insult with the nitric oxide donor SIN-1 (500 or 600 μM) for a subsequent 24 h period. Cell viability was evaluated by a colorimetric assay for mitochondrial function using 3-(4,5-dimethylthiazol-2-yl)-2,5-diphenyltetrazolium bromide (MTT test), and expressed as percentage of untreated control. Values higher than 100% reflect increased mitochondrial activity induced by the drug. The results represent the mean±SEM of three independent experiments performed under the same conditions.

Another series deals with SH-SY5Y cells. The series is classed as cell-based. On the procedure: Human neuroblastoma cell line was also examined under conditions similar to RIN-m cells to reveal the corrole's ability to prevent neuronal death caused by oxidative stress. SH-SY5Y cells were plated in microtiter plates (96 wells) in DMEM-Eagle/F-12(HAM) (1:1), containing 10% FCS. To examine neuroprotective effect, SH-SY5Y cells were treated for 30 min with corroles 1C-Fe and 5C-Fe (20 and 50 μM) before addition of 20 μM H2O2 for 24 h. To examine neurorescue, SH-SY5Y cells were first exposed to 20 μM H2O2 for 0.5 h, 1.5 h or 3 h, followed by the addition of corroles 1C-Fe and 5C-Fe (20 μM) and incubation for 24 h.
Compounds 1C-Fe and 1P-Fe (1-50 μM) were added 30 min before insult with H2O2 (200 μM), followed by a subsequent 24 h period. The neuroprotective effects of the iron corrole 1C-Fe and its structurally analogous iron porphyrin 1P-Fe, against H2O2-induced neurotoxicity were investigated using MTT reduction assay and cell death ELISA, based on the use of mouse monoclonal antibodies to detect free histones and fragmented DNA (F. Hollderieder et al, Biochemica 2002, 1, 25). […] In light of the observed neuroprotective effect of corrole 1C-Fe, we attempted to determine the length of the delay between H2O2 exposure and corrole 1C-Fe treatment that would still afford neuroprotection. H2O2 was administered to SH-SY5Y cells and corrole 1C-Fe was then added for 0.5-1.5 h thereafter. […]

For the next series, the system named is RIN-m cells. Briefly: Protection of RIN-m cells against SIN-1 toxicity (MTT). The series is classed as cell-based, rat. The settings on record: 24 h; for protective effect against SIN-1 induced toxicity (MTT), comparative: 0.1-20 μM, 30 min before SIN-1 (800 μM). On the procedure:
as §1
Insulin-secreting RIN-m cells were incubated in RPMI with low serum content (2% FCS) and placed in microtiter plates (96 wells) at a density of 2.5×10^4 cells/well and allowed to attach for 24 h before treatment. Cells were treated with corroles 1C-Fe, 1C-Mn or 2C-Mn or porphyrins 1P-Fe or 2P-Mn, in various concentrations (0.1-20 μM), for 30 min prior to insult with SIN-1 (800 μM) for a subsequent 24 h period. Cell viability was evaluated by MTT test and expressed as percentage of untreated control.

The test system of series [2] is INS-1E cells. Briefly: Protection of INS-1E beta cells against H2O2 toxicity. Format: cell-based, rat. The settings on record: 20 and 50 μM, 30 min before increasing H2O2 concentrations, 24 h. How it is done:
Two insulin-secreting beta cell lines, rat insulinoma (INS-1E) and RIN-m cells, were used to examine the protective effect of corrole 1C-Fe. The cells were cultured at 37° C., in a humid 5% CO2, 95% air environment in regular RPMI-1640 medium (Invitrogen) supplemented with 5% fetal calf serum (FCS).
After 2 days of culture, INS-1E cells (5×10^4 cells/well in 96-well plates) were treated with corrole 1C-Fe (20 and 50 μM) added 30 minutes prior to treatment with increasing concentrations of H2O2 and then further incubated for 24 h.

The next series deals with clonal beta cell lines. Briefly: Toxicity of corrole alone (without H2O2) on clonal beta cell lines. Format: cell-based. The settings on record: without H2O2, concentrations up to 50 μM.
In a further series the test system is cleaved caspase-3. The experiment in a line: Cleaved caspase-3 level in 6-OHDA-treated SH-SY5Y cells, immunofluorescence. The series is classed as cell-based, human. The settings on record: 20 μM, 30 min before 6-OHDA (40 μM), 24 h. On the procedure: SH-SY5Y cells were pretreated with or without corroles 1C-Fe, 2C-Mn and 3C-Mn and porphyrins 1P-Fe and 2P-Mn (20 μM), 30 min before exposure to 6-OHDA (40 μM) for a subsequent 24 h period. Cell viability was evaluated by MTT test and cell death was assessed using the apoptotic cell death detection ELISA kit. For neurorescue, SH-SY5Y cells were first exposed to 40 μM 6-OHDA for 0.5. 1, 1.5 and 3 h, followed by the addition of the compounds 1C-Fe, 2C-Mn and 3C-Mn (20 μM) and incubated for further 24 h. Growth-associated protein (GAP-43) was detected by fluorescence microscopy using a specific primary antibody. Apoptotic nuclei were determined by terminal deoxynucleotidyl transferase-mediated UTP-digoxigenin nick end labeling analysis. 4′,6-Diamidino-2-phenylnidole (DAPI) staining was applied for nuclear labeling. […]
Since 6-OHDA is also known to induce apoptosis in various cell types, including SH-SY5Y (von Coelln et al. 2001; Nie et al. 2002; Shimizu et al. 2002; Jordan et al. 2004), we further tested effect of corroles on the levels of the apoptotic marker, cleaved caspase-3, a major executer of the mitochondrial intrinsic pathway of apoptosis.

The nature of series [3]: Peroxynitrite decomposition rates by manganese corroles (Example 2). Format: biochemical. The settings on record: 385 μM peroxynitrite, pH 7.4, 25° C., absorbance at 302 nm; Table 2. How it is done:
The investigations were performed by examining the decay of 385 μM peroxynitrite at pH 7.4 and 25° C. in the presence and absence of various amounts of Mn corrole catalysts 2C-Mn, 2C′-Mn, 2C″-Mn, 3C-Mn and 4C-Mn. The differences between 2C-Mn, 2C′-Mn, and 2C″-Mn is in the identity of the 10-aryl group, which is C6F5, para-anisyl, and phenyl, respectively. The results (one example using 4C-Mn is shown in FIG. 1) were obtained by monitoring changes in absorbance at 302 nm, the λmax of peroxynitrite. The catalytic performances of five of the above compounds were tested; and the thus elucidated kcat values are presented in Table 2. Importantly, in sharp contrast with the corroles, none of the structurally similar manganese (III) porphyrin complexes affected the decomposition of peroxynitrite by any extent (not shown).

SMILES strings stand for the structures. “Also recorded” adds a separate entry of the source. Read-outs that look alike come from different tables or passages of the source.

In the case of `O=S(=O)(O)c1cc2[n]3c1C(c1c(F)c(F)c(F)c(F)c1F)=C1C=CC4=[N+]1[Fe-]31[n]3c(cc(S(=O)(=O)O)c3-2)C(c2c(F)c(F)c(F)c(F)c2F)=c2ccc([n]21)=C4c1c(F)c(F)c(F)c(F)c1F` (stereo not shown) [1C-Fe, 2,17-bis(sulfonato)-5,10,15-tris(pentafluorophenyl)-corrolato iron(III)], the “protective effect against SIN-1 induced toxicity (MTT)” value in the series with INS-1E cells [1] is “marked protective effect”; in the series on RIN-m cells (10 μM, 30 min before SIN-1 (500 or 600 μM)), “marked protective effect”. For the same molecule, the “neurorescue after H2O2 insult” value in the series on SH-SY5Y cells (20 μM H2O2 for 0.5, 1.5 or 3 h, then 20 μM corrole, 24 h) is “instigated neurorescue”. Also, the “cell viability (MTT reduction)” value in the series with SH-SY5Y cells (1-20 μM, 30 min before 200 μM H2O2, 24 h) is on record as “dose-dependently increased cell viability”. The “neuroprotective effect, corrole added after H2O2” value in the series with SH-SY5Y cells (1 and 1.5 h post-H2O2 insult, extent of protection gradually decreased) is “significantly protected”; in the series with SH-SY5Y cells (0.5 h post-H2O2 insult) it was “remained unaltered”. Moreover, in the series with SH-SY5Y cells (20 and 50 μM, 30 min before 20 μM H2O2, 24 h), the “neuroprotective effect against H2O2-induced toxicity” value is “dose-dependent neuroprotective effect”. Moreover, the “cell death (ELISA detection assay)” value in the series on SH-SY5Y cells (30 min before 200 μM H2O2, 24 h) is “significantly and dose-dependently protected”. In addition, in the series with SH-SY5Y cells (all concentrations studied (1-50 μM), 200 μM H2O2), the “protection from H2O2-induced neurotoxicity compared with porphyrin” value is recorded as “displayed superiority over porphyrin 1P-Fe”. Also, the “protective effect against SIN-1 induced toxicity (MTT), comparative” value with RIN-m cells is given as “successful; also recorded: exhibits a greater protective effect”. The “protective effect against H2O2 toxicity” value with INS-1E cells [2] is listed as “significant protective effect”. Also, the “toxicity when given alone” value in the series on clonal beta cell lines is “shows no toxicity”. In addition, the “6-OHDA-induced increase of cleaved caspase-3” value with cleaved caspase-3 is reported as “abolished partially”.

`C[n+]1ccc(C2=C3C=CC4=[N+]3[Mn-]35[n]6c2ccc6-c2ccc([n]23)C(c2cc[n+](C)cc2)=c2ccc([n]25)=C4c2c(F)c(F)c(F)c(F)c2F)cc1.[I-].[I-]` (stereo not shown) [2C-Mn, 5,15-bis(4-N-methyl-pyridilium)-10-pentafluorophenyl-corrolato manganese(III) diiodide salt]: the “protective effect against SIN-1 induced toxicity (MTT), comparative” value with RIN-m cells was “successful; also recorded: unequivocally in favor of the former; also recorded: improved protective effect”. In addition, in the series on cleaved caspase-3, the “6-OHDA-induced increase of cleaved caspase-3” value is “totally”. Further, the “kcat, peroxynitrite decomposition rate” value in series [3] stood at 150000 M⁻¹ s⁻¹.
